Reference: patent US8168596B2, “Use of cycloartane compounds for treating arthritis” (NuLiv Holding Inc., priority 2008, dated 2012)

Key:
[1] = tested on: MMP-9; assay: Zymography of MMP-9 from pre-treated SW1353 cells; assay type: cell-based, human; settings: PMA-pre-treated SW1353; 0.1 μM, 24 h
Procedure: At the beginning of the experiment, the cells were pre-treated with 100 ng/mL PMA or 10 ng/mL IL-1β for 24 hours. The cells were then treated with 0.1 μM Dexamethasone, various astragaloside compounds (0.1 μM) or extracts of Astragalus membranaceous (1 μg/mL) at indicated dosages for another 24 hours. For control sample, 0.1% DMSO was used as a negative control for these experiments. The conditioned culture mediums were then centrifuged, 2-fold concentrated and collected for assay of collagens or MMPs secreted into the culture medium.
The proteolytic activities of MMPs from SW1353 cells were measured essentially as described previously (Circ Res, 1999; 85:906-911). The cells were lysed in lysis buffer (1% Triton X-100, 50 mM Tris-Cl, pH 7.4, 180 mM NaCl, 1 mM EDTA). The samples were measured for their protein concentration using the bicinchoninic acid (BCA) protein assay kit as described. Samples of concentrated conditioned medium and cell lysates were mixed with non-reducing electrophoresis loading buffer and subjected to electrophoresis under non-reducing conditions. The electrophoresis was carried out on a 10% SDS-PAGE co-polymerized with 2 mg/mL gelatin or casein (Sigma, St. Louis, Mo. USA). For zymographic analysis of pro-MMP-2 and activated MMP-2, the total 20 μg of culture medium were used for electrophoresis. Following electrophoresis, renaturation of the proteins was achieved by incubating the gels twice in 25 g/L Triton X-100 at room temperature for 10 min. Subsequently the gels were incubated in 50 mM Tris-HCl, pH 7.5 containing 0.2 M NaCl, 0.02% Brij35 and 10 mM CaCl2 at 37° C. for 18 hours. After the gels were stained with Coomassie Brilliant Blue R-250 and destained, zones of proteolytic activities became visible as transparent bands in the stained gel. In order to obtain higher sensitivity, the gels were further destained in a solution of 1% Triton X-100 (1 to 2 hours). This procedure increased the signal-to-noise ratio, allowing the visualization of faint gelatinase bands at 92 kDa, 125 kDa and greater than 200 kDa. Zymograms were read using a Molecular Dynamics (Sunnyvale, Calif., USA) computing laser densitometer with Image Quant software.

[2] = tested on: TIMP1 mRNA; assay: RT-PCR of TIMP1 mRNA expression in SW1353 cells; assay type: cell-based, human; settings: for TIMP1 mRNA expression after AS4 treatment followed by PMA: then 100 ng/mL PMA 24 h; for TIMP mRNA expression after only AS4 treatment: 24 h, no PMA
Procedure: First of all, the interaction between TIMP1 mRNA expression and MMP1 mRNA expression in human SW1353 cell line after only AS4 treatment was studied. […] The SW1353 cells were then collected for RT-PCR analysis.
In a second testing, the effect of AS4 treatment followed by PMA treatment was also studied. The SW1353 cells were first treated with astragaloside IV (AS4) at a concentration of 0.01 μM, 0.1 μM, or 1 μM, followed by incubation for 24 hours. Then PMA was added into each well, followed by incubation for 24 hours. These SW1353 cells were also collected for RT-PCR analysis in the end of the second testing.
Total RNAs were isolated from the cultured human cells using NucleoSpin RNAII Kit (Macherey-Nagel Inc., PA, USA). Five μg of RNA was reverse transcribed in a total 20 μl transcription mixture. The reaction tube containing primers (oligo(dT)), RNA, 10 mM dNTP Mix, and DEPC-treated water was first incubated at 65° C. for 5 minutes. Eight μl master reaction mixture containing 4 μl 5× cDNA synthesis Buffer, 1 μl 0.1 M DTT, 1 μl RNase OUT™ (40U/μl), 1 μl DEPC-Treated water, and 1 μl SuperScript™II was then added into the reaction tube. The reaction tube was then incubated at 50° C. for 60 minutes, followed by incubation at 85° C. for 5 minutes. Finally, 1 μl RNase H was added at 37° C. and the reaction tube was incubated for 20 minutes. The resulting cDNA was further amplified by PCR. The relevant primers for the following PCR reaction were listed below.
(ii) the TIMP1 forward primer is 5′-AATTCCGACCTCGTCATCAG-3′ (SEQ ID NO: 3) and the TIMP1 reverse primer is 5′-TGCAGTTTTCCAGCAATGAG-3′ (SEQ ID NO: 4); and
In addition, the PCR reaction of MMP1 cDNA was preformed as follows: 95° C. for 5 min, followed by 35 cycles of 94° C. for 30 sec, 60° C. for 30 sec, and 72° C. for 30 sec, and then 72° C. for 10 min followed by maintaining at 4° C. Similarly, the PCR reaction of TIMP1 cDNA was performed as follows: 94° C. for 5 min, followed by 35 cycles of 94° C. for 30 sec, 60° C. for 30 sec, and 72° C. for 30 sec, and then 72° C. for 10 min followed by maintaining at 4° C. The PCR reaction of GAPDH cDNA was performed as follows: 94° C. for 5 min, followed by 18 cycles of 94° C. for 30 sec, 54° C. for 30 sec, and 72° C. for 30 sec, and then 72° C. for 30 sec followed by maintaining at 4° C. These PCR products were analyzed by electrophoresis on a 1.5% gel.

## CC(C)(O)[C@@H]1CC[C@](C)([C@H]2[C@@H](O)C[C@@]3(C)[C@@H]4C[C@H](O[C@@H]5O[C@H](CO)[C@@H](O)[C@H](O)[C@H]5O)[C@H]5C(C)(C)[C@@H](O[C@@H]6OC[C@@H](O)[C@H](O)[C@H]6O)CC[C@@]56C[C@@]46CC[C@]23C)O1 [AS4, Astragaloside IV]
[1]
  MMP-9, Zymography, relative to Ctrl 1.00: 1.04
[2]; AS4 0.01 μM 24 h
  TIMP1 mRNA expression after AS4 treatment followed by PMA: 1.36
[2]; AS4 0.01 μM
  TIMP mRNA expression after only AS4 treatment: 0.87
[2]; AS4 0.1 μM 24 h
  TIMP1 mRNA expression after AS4 treatment followed by PMA: 1.34
[2]; AS4 0.1 μM
  TIMP mRNA expression after only AS4 treatment: 0.90
[2]; AS4 1 μM 24 h
  TIMP1 mRNA expression after AS4 treatment followed by PMA: 1.31
[2]; AS4 1 μM
  TIMP mRNA expression after only AS4 treatment: 0.84
